Laboratory results from publication PMC7312375, “A Novel, Pan-PDE Inhibitor Exerts Anti-Fibrotic Effects in Human Lung Fibroblasts via Inhibition of TGF-β Signaling and Activation of cAMP/PKA Signaling” (International Journal of Molecular Sciences, 2020).

Key:
TRPA1 = biological target: T1, TRPA1 (Homo sapiens, UniProt O75762); assay: TRPA1 antagonist FLIPR assay (functional, HEK293 cell-based)
T1 construct: host or cells: HEK293
Protocol: The TRPA1 agonist and antagonist fluorescent imaging plate reader (FLIPR) Assay (functional, HEK293 cell-based) was performed at Eurofins Panlabs, Inc. (St. Charles, MO, USA). The compounds were prepared in assay buffer to the final dilutions 10 and 50 µM. In each experiment, the respective reference compounds were tested: allyl isothiocyanate (the agonist assay) and ruthenium red (the antagonist assay). The […] assays were conducted on a FLIPR^TETRA instrument where the test compounds, vehicle controls, and reference agonists or antagonists were added to the assay plate after a fluorescence baseline was established. The agonist or antagonist incubation during the assay was for a total of 180 s and was used to assess each compound’s ability to activate or inactivate TRPA1. All plates were subjected to appropriate baseline corrections. Once baseline corrections were processed, maximum fluorescence values were exported, and data was manipulated to calculate percentage activation or percentage inhibition. Results showing activity greater than 25% were considered to represent significant effects of test compounds. Experiments were run three times, […].

MRC-5 cells = assay: FBS-induced MRC-5 proliferation, alamarBlue assay; type: cell-based, human; conditions: for inhibition at 50 µM: Homo sapiens, MRC5, read-out: inhibition of FBS-induced MRC-5 proliferation rate; for MRC-5 proliferation [% of control]: 48 h with FBS
Protocol: The normal human lung fibroblast cell line—MRC-5 (ATCC® CCL-171™, Manassas, VA, USA)—was used in the study. Cells were cultured in Eagle’s Minimum Essential Medium (EMEM, ATCC® 30-2003™, Manassas, VA, USA) supplemented with 10% (v/v) fetal bovine serum (FBS; Gibco, Thermo Fisher Scientific, Waltham, MA, USA) and antibiotics mixture (penicillin, streptomycin, amphotericin B; Gibco, Thermo Fisher Scientific, Waltham, MA, USA) (standard culture medium) in standard culture conditions (5% CO2, 37 °C, 95% humidity). Unless otherwise specified, for the experiments, cells were seeded at a final density (5 × 10^3/cm^2) in standard culture medium for 24 h and then cultured in EMEM at reduced serum content (0.5%; v/v) for additional 24 h. TGF-β1 (BD Biosciences, San Jose, CA, USA) was administered at 5 ng/mL concentration in all experiments.
MRC-5 cell viability was evaluated using CytoTox-ONE™ Homogeneous Membrane Integrity Assay (Promega Corporation, Madison, WI, USA) according to the manufacturer’s protocol. The average fluorescence intensity with an excitation wavelength of 560 nm and an emission wavelength of 590 nm was measured using a microplate reader (SpectraMax® iD3, Molecular Devices, San Jose, CA, USA). Experiments were run three times in duplicates. MRC-5 proliferation was determined using the alamarBlue® assay. Cells were seeded for 24 h in standard culture medium, then serum-starved for an additional three days. Evaluated compounds (1-50 µM) were added 1 h prior FBS (10%, v/v) for an additional 48 h. After incubation, the alamarBlue® reagent (Invitrogen, Life Technologies, Carlsbad, CA, USA), dissolved in Hank’s Balanced Salt Solution (10% v/v; Gibco, Thermo Fisher Scientific, Waltham, MA, USA), was added for 30 min. After the observed color change, the supernatant was transferred to 96-well plates, and the absorbance was measured at 570 and 600 nm. The percent difference in reduction between treated and control cells was calculated according to the manufacturer’s protocol. The experiments were run three times in duplicates.

[1] = test system: TGF-β1-induced MRC-5 cells; assay: Immunofluorescence, nuclear localization of p-Smad-2; type: cell-based, human; conditions: 10 µM; compared to TGF-β1 alone
Protocol: For immunocytochemical labeling, MRC-5 cells were seeded on glass coverslips. Study compounds (10 µM) were added 1 h before TGF-β1 treatment, and analysis was performed after 1 h (p-Smad-2 and p-CREB detection) or 48 h (α-SMA detection) of incubation. Cells were fixed in methanol or 4% formaldehyde solution, permeabilized in 0.2% or 0.1% Triton X-100 solution (for p-Smad-2 and p-CREB or α-SMA, respectively). After incubation in blocking solution the following primary antibodies: rabbit polyclonal, anti-phospho-Smad-2 (Ser465, Ser467) antibody (#44-244G, Thermo Fisher Scientific, Waltham, MA, USA); rabbit polyclonal, anti-phospho-CREB1 (Ser133) antibody (#orb213775, Biorbyt, Cambridge, United Kingdom); mouse monoclonal, anti-α-SMA antibody (#MA5-11547, Thermo Fisher Scientific, Waltham, MA, USA) and secondary antibodies: goat anti-rabbit Alexa Fluor 546 conjugated antibody and goat anti-mouse Alexa Fluor 488 conjugated antibody (#A-11010 and #A-11001, respectively, Invitrogen, Carlsbad, CA, USA) were used. […] Slides were mounted in ProLong™ Glass Antifade Mountant (Invitrogen, Carlsbad, CA, USA) and analyzed using Leica DMiL LED Fluo microscope (for α-SMA and p-CREB visualization, 40× objective) or Leica DMi8 with Thunder Imaging System (for p-Smad-2 visualization, 40× objective), all equipped with LAS-X Software (Leica Microsystems GmbH, Wetzlar, Germany). […]

PDE5A = PDE5A (Homo sapiens, UniProt O76074); parameters: method as in PMID 31705904; conditions: published previously; read-out: PDE-IC50 5A; cited from earlier work

T1 sequence (O75762 whole entry, species assumed): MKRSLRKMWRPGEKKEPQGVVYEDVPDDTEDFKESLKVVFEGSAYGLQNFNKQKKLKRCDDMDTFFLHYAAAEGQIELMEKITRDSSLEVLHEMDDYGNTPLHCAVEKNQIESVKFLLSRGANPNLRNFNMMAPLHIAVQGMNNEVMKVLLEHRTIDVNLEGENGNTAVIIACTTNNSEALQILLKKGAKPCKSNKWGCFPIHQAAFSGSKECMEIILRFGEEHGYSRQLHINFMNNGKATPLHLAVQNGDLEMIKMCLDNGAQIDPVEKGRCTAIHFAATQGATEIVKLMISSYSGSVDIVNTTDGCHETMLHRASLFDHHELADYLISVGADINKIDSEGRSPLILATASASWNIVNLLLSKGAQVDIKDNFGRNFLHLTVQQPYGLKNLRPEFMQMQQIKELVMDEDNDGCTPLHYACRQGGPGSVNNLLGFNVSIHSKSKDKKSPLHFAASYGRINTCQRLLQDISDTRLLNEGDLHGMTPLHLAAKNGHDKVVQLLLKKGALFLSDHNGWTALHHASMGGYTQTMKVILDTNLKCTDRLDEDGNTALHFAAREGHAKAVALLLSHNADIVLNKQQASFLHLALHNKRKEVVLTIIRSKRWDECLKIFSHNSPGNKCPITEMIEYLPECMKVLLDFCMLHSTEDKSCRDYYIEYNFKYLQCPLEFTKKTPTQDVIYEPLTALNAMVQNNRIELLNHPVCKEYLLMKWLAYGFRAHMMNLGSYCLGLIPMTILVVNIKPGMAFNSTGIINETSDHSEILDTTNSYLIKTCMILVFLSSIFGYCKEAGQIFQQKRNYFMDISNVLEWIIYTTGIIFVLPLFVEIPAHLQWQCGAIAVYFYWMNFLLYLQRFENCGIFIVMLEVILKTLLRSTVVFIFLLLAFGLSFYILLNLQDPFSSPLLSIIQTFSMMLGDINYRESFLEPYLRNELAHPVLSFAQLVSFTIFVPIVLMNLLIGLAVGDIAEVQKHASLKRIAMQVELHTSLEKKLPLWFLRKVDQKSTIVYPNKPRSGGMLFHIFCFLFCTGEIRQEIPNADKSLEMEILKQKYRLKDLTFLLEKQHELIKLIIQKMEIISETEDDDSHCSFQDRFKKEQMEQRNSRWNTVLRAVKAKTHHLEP

SMILES | TRPA1 Inhibition (% of control) (TRPA1; 10 µM) | TRPA1 Inhibition (% of control) (TRPA1; 50 µM) | inhibition at 50 µM (MRC-5 cells; 50 µM) | MRC-5 proliferation [% of control] (MRC-5 cells; Table S1 (Figure 2B), 1 µM) | MRC-5 proliferation [% of control] (MRC-5 cells; Table S1 (Figure 2B), 5 µM) | MRC-5 proliferation [% of control] (MRC-5 cells; Table S1 (Figure 2B), 10 µM) | MRC-5 proliferation [% of control] (MRC-5 cells; Table S1 (Figure 2B), 15 µM) | MRC-5 proliferation [% of control] (MRC-5 cells; Table S1 (Figure 2B), 20 µM) | MRC-5 proliferation [% of control] (MRC-5 cells; Table S1 (Figure 2B), 50 µM) | decrease of TGF-β1-induced nuclear localization of p-Smad-2 [1] | MRC-5 proliferation [% of control] (MRC-5 cells; Table S2 (Figure 5B), 1 µM) | MRC-5 proliferation [% of control] (MRC-5 cells; Table S2 (Figure 5B), 5 µM) | MRC-5 proliferation [% of control] (MRC-5 cells; Table S2 (Figure 5B), 10 µM) | MRC-5 proliferation [% of control] (MRC-5 cells; Table S2 (Figure 5B), 50 µM) | IC50 (PDE5A)
Cn1c(=O)c2c(nc(NCc3ccco3)n2CCCC(=O)NN=Cc2ccc(O)cc2O)n(C)c1=O [Compound 832, N′-(2,4-dihydroxybenzylidene)-4-(8-((furan-2-ylmethyl)amino)-1,3-dimethyl-2,6-dioxo-1,2,3,6-tetrahydro-7H-purin-7-yl)butanehydrazide] | 12.4 % of control | 8.8 % of control | 39% | 93 % of control | 87 % of control | 85 % of control | 82 % of control | 83 % of control | 61 % of control | a slight decrease | – | – | – | – | –
CCCCOc1nc2c(c(=O)n(C)c(=O)n2C)n1CCCC(=O)Nc1cc(C(C)(C)C)ccc1O [Compound 145, 4-(8-butoxy-1,3-dimethyl-2,6-dioxo-1,2,3,6-tetrahydro-7H-purin-7-yl)-N-(5-(tert-butyl)-2-hydroxyphenyl)butanamide] | 12.3 % of control | 4.8 % of control | 58% | 104 % of control | 91 % of control | 84 % of control | 74 % of control | 72 % of control | 42 % of control | 57% | 93 % of control | 84 % of control | 83 % of control | 46 % of control | 104 µM
COc1nc2c(c(=O)n(C)c(=O)n2C)n1CC(=O)Nc1ccc(C(C)(C)C)cc1 [Compound 869, N-(4-(tert-butyl)phenyl)-2-(8-methoxy-1,3-dimethyl-2,6-dioxo-1,2,3,6-tetrahydro-7H-purin-7-yl)acetamide] | 74.9 % of control | 98.7 % of control | 25% | 91 % of control | 89 % of control | 90 % of control | 88 % of control | 87 % of control | 75 % of control | – | – | – | – | – | –
CC(C)Cn1c(=O)n(C)c(=O)c2[nH]cnc21 [IBMX, 3-isobutyl-1-methyl-3,7-dihydro-1H-purine-2,6-dione, reference compound] | – | – | 10% | 102 % of control | 99 % of control | 98 % of control | 100 % of control | 95 % of control | 90 % of control | – | – | – | – | – | 45.1 µM
